How the values were obtained:
HCK enzyme = HCK enzyme (Homo sapiens (Human), UniProt P08631); assay: HCK enzyme inhibition assay (FRET, Z'-LYTE); format: biochemical; settings: read-out: Enzyme Profile: IC50 Values HCK
cSrc enzyme = cSrc enzyme (Homo sapiens (Human), UniProt P12931); assay: c-SRC enzyme inhibition assay (FRET, Z'-LYTE); format: biochemical; settings: read-out: Enzyme Profile: IC50 Values cSrc
p38 MAPK γ (MAPK12) = p38 MAPK γ (MAPK12) (Homo sapiens (Human), UniProt P53778); assay: Enzyme inhibition assay (FRET, Z-LYTE), p38 MAPK gamma; format: biochemical; settings: read-out: Enzyme Profile: IC50 Values p38γ
Description: (§1) The enzyme inhibitory activity of test compounds was determined by fluorescence resonance energy transfer (FRET) using synthetic peptides labelled with both donor and acceptor fluorophores (Z-LYTE, Invitrogen). Recombinant, phosphorylated p38 MAPK γ (MAPK12:Millipore) was diluted in HEPES buffer, mixed with compound at the desired final concentrations and incubated for 2 hr at RT. The FRET peptide (2 μM) and ATP (100 μM) were next added to the enzyme/compound mixture and incubated for 1 hr. Development reagent (protease) was added for 1 hr prior to detection in a fluorescence microplate reader. The site-specific protease only cleaves non-phosphorylated peptide and eliminates the FRET signal. Phosphorylation levels of each reaction were calculated using the ratio of coumarin emission (donor) over fluorescein emission (acceptor) with high ratios indicating high phosphorylation levels and low ratios indicating low phosphorylation levels.

[1] = test system: TNFα release in THP-1 cells; assay: LPS-induced TNFα release in THP-1 cells; format: cell-based; settings: Homo sapiens; THP-1 cells, LPS 3 μg/mL, 4 hr; read-out: THP1 (LPS) TNFα IC50
Description: The inhibition of TNFα production was calculated at each concentration by comparison with vehicle control.

[2] = test system: TNFα release in d-U937 cells; assay: LPS-induced TNFα release in d-U937 cells; format: cell-based; settings: Homo sapiens, dU937, LPS 0.1 μg/mL, 4 hr, relative to 10 μg/mL BIRB796, read-out: d-U937 (LPS) TNFα REC50
Outline: (§2)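 U937 cells made macrophage-like by 48–72 h with PMA (100 ng/mL), then stimulated with LPS (E. coli O111:B4) for 4 h. Supernatant TNFα and IL-8 measured by sandwich ELISA; inhibition versus vehicle control at each concentration, REC50 from concentration-response curve.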

[3] = test system: ICAM-1 expression in BEAS2B cells; assay: Poly I:C-induced ICAM-1 induction in BEAS2B cells; format: cell-based; settings: Homo sapiens, BEAS-2B; BEAS2B cells, poly I:C 1 μg/mL, 18 hr; read-out: BEAS2B (polyIC) ICAM1 IC50
Outline: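 Human bronchial epithelial BEAS2B cells pre-incubated 2 hr with test compounds at final concentrations, then transfected with poly I:C (1 μg/mL) using Oligofectamine. Cell-surface ICAM-1 quantified by cell-based ELISA with HRP-conjugated anti-rabbit IgG secondary.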

[4] = test system: Differentiated U937 cells; assay: MTT assay: cell viability; format: cell-based, human; settings: 1 μg/ml; for d-U937 MTT Assay 4 h: 5% FCS; for d-U937 MTT Assay 24 h: 10% FCS
Outline: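 Differentiated U937 cells pre-incubated with compound either 4 hr in 5% FCS or 24 h in 10% FCS, then 1 hr MTT. Formazan dissolved in DMSO, absorbance at 550 nm. Percentage viability loss relative to 0.5% DMSO vehicle; apparent increases appear as negative percentages.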

[5] = test system: IL-8 release in d-U937 cells; assay: LPS-induced IL-8 release in d-U937 cells; format: cell-based; settings: Homo sapiens, dU937; d-U937 cells, LPS 0.1 μg/mL, 4 hr; read-out: d-U937 (LPS) IL-8 IC50
Outline: as §2

HRV16 = assay: Rhinovirus-titre assay; format: cell-based, human rhinovirus; settings: HRV16; for inhibition at 0.04 µg/mL: Human rhinovirus sp., cell not marked b, test compounds 0.04 μg/mL per method (footnote b, 0.2 μg/mL), read-out: HRV titre (inhibitory %): % inhibition observed vs. HRV16 infection control; for NBEC (HRV) HRV titre Relative anti-viral activity: at 0.04 μg/mL vs. pleconaril at 0.1 μg/mL
p38 MAPK alpha (MAPK14) = p38 MAPK alpha (MAPK14) (Homo sapiens (Human), UniProt Q16539); assay: Enzyme inhibition assay (FRET, Z-LYTE), p38 MAPK alpha via MAPKAP-K2 activation; format: biochemical; settings: read-out: Enzyme Profile: IC50 Values p38α
Description: as §1
For p38 MAPK alpha (MAPK14: Invitrogen), enzyme activity was evaluated indirectly by determining activation/phosphorylation of the down-stream molecule, MAPKAP-K2. The p38 MAPK a protein was mixed with compound for 2 hr at RT. […] Development reagent was then added and the mixture incubated for 1 hr before detection by fluorescence completed the assay protocol.
The enzyme inhibitory activity of compound was determined by fluorescence resonance energy transfer (FRET) using synthetic peptides labelled with both donor and acceptor fluorophores (Z′-LYTE, Invitrogen).

| SMILES | IC50 (HCK enzyme) [nM] | IC50 (cSrc enzyme) [nM] | IC50 (p38 MAPK γ (MAPK12)) [nM] | IC50 [1] [nM] | EC50 [2] [nM] | IC50 [3] [nM] | d-U937 MTT Assay 4 h [4] | d-U937 MTT Assay 24 h [4] | IC50 [5] [nM] | inhibition at 0.04 µg/mL (HRV16) [%] | NBEC (HRV) HRV titre Relative anti-viral activity (HRV16) | IC50 (p38 MAPK alpha (MAPK14)) [nM] |
| --- | --- | --- | --- | --- | --- | --- | --- | --- | --- | --- | --- | --- |
| CC(C)(C)c1cc(NC(=O)Nc2ccc(Oc3ccnc4[nH]c(=O)[nH]c34)c3ncccc23)n(-c2ccccc2)n1 [Example 4, 1-(3-tert-butyl-1-phenyl-1H-pyrazol-5-yl)-3-(8-(2-oxo-2,3-dihydro-1H-imidazo [4,5-b]pyridin-7-yloxy)quinolin-5-yl) urea] | 7 | 0.9 | 214 | 185 | 171 | 581 | − (− and + indicate the result is below and above the no significant effect threshold, respectively (<30% inhibition at a concentration of 1 μg/ml)) | − (− and + indicate the result is below and above the no significant effect threshold, respectively (<30% inhibition at a concentration of 1 μg/ml)) | 378 | 60 | 0.7 | 18 |
| COc1ccc(-n2nc(C(C)(C)C)cc2NC(=O)Nc2ccc(Oc3ccnc4[nH]c(=O)n(C(C)C)c34)c3ccccc23)cc1 [Example 12] | 8 | 12 | 495 | 1.3 | 0.5 | 1.9 | − (− and + indicate the result is below and above the no significant effect threshold, respectively (<30% inhibition at a concentration of 1 μg/ml)) | − (− and + indicate the result is below and above the no significant effect threshold, respectively (<30% inhibition at a concentration of 1 μg/ml)) | 1.1 | 94 | – | 11 |
| Cc1ccc(-n2nc(C3CC3)cc2NC(=O)Nc2ccc(Oc3ccnc4[nH]c(=O)cnc34)c3ccccc23)cc1 [Example 28, 1-(3-cyclopropyl-1-(p-tolyl)-1H-pyrazol-5-yl)-3-(4-((3-oxo-3,4-dihydropyrido[2,3-b]pyrazin-8-yl)oxy)naphthalen-1-yl)urea] | 9 | 22 | > 18000 | 161 | 40 | > 184 | − (− and + indicate the result is below and above the no significant effect threshold, respectively (<30% inhibition at a concentration of 1 μg/ml)) | − (− and + indicate the result is below and above the no significant effect threshold, respectively (<30% inhibition at a concentration of 1 μg/ml)) | 71 | 36 | – | 2 |
| CC(C)(C)c1cc(NC(=O)Nc2ccc(Oc3ccnc4[nH]c(=O)cnc34)c3ccccc23)n(-c2ccc(S(C)(=O)=O)cc2)n1 [Example 31, 1-(3-(tert-butyl)-1-(4-(methylsulfonyl)phenyl)-1H-pyrazol-5-yl)-3-(4-((3-oxo-3,4-dihydropyrido[2,3-b]pyrazin-8-yl)oxy)naphthalen-1-yl)urea] | 3 | 6 | 47 | 62 | 60 | 178 | − (− and + indicate the result is below and above the no significant effect threshold, respectively (<30% inhibition at a concentration of 1 μg/ml)) | − (− and + indicate the result is below and above the no significant effect threshold, respectively (<30% inhibition at a concentration of 1 μg/ml)) | 68 | 8 | – | 5 |
| CC(C)(C)c1cc(NC(=O)Nc2ccc(Oc3ccnc4[nH]c(=O)cnc34)c3ccccc23)n(-c2ccccc2)n1 [Example 5, 1-(3-(tert-butyl)-1-phenyl-1H-pyrazol-5-yl)-3-(4-((3-oxo-3,4-dihydropyrido[2,3-b]pyrazin-8-yl)oxy)naphthalen-1-yl) urea] | 3 | 5 | 43 | 13 | 6.2 | 6.6 | − (− and + indicate the result is below and above the no significant effect threshold, respectively (<30% inhibition at a concentration of 1 μg/ml)) | − (− and + indicate the result is below and above the no significant effect threshold, respectively (<30% inhibition at a concentration of 1 μg/ml)) | 4.1 | 36 | – | 2 |
| COc1ccc(-n2nc(C(C)(C)C)cc2NC(=O)Nc2ccc(Oc3ccnc4[nH]c(=O)cnc34)c3ccccc23)cn1 [Example 20] | 3 | 8 | 44 | 13 | 3.4 | 21 | − (− and + indicate the result is below and above the no significant effect threshold, respectively (<30% inhibition at a concentration of 1 μg/ml)) | − (− and + indicate the result is below and above the no significant effect threshold, respectively (<30% inhibition at a concentration of 1 μg/ml)) | 16 | 36 | – | 6 |
| Cc1ccc(-n2nc(C(C)(C)C)cc2NC(=O)Nc2ccc(Oc3ccnc4[nH]c(=O)n(C)c34)c3ccccc23)cc1 [Example 3, 1-(3-tert-butyl-1-p-tolyl-1H-pyrazol-5-yl)-3-(4-(1-methyl-2-oxo-2,3-dihydro-1H-imidazo[4,5-b]pyridin-7-yloxy)naphthalen-1-yl)urea] | 2 | 4 | 24 | 0.7 | 1.1 | 4.1 | − (− and + indicate the result is below and above the no significant effect threshold, respectively (<30% inhibition at a concentration of 1 μg/ml)) | − (− and + indicate the result is below and above the no significant effect threshold, respectively (<30% inhibition at a concentration of 1 μg/ml)) | 17 | 36 | 0.2 | 1 |
| COc1ccc(-n2nc(C(C)(C)C)cc2NC(=O)Nc2ccc(Oc3ccnc4[nH]c(=O)cnc34)c3ccccc23)cc1 [Example 25, 1-(3-(tert-butyl)-1-(4-methoxyphenyl)-1H-pyrazol-5-yl)-3-(4-((3-oxo-3,4-dihydropyrido[2,3-b]pyrazin-8-yl)oxy)naphthalen-1-yl)urea] | 5 | 12 | 50 | 1.6 | 1.8 | 8.3 | − (− and + indicate the result is below and above the no significant effect threshold, respectively (<30% inhibition at a concentration of 1 μg/ml)) | − (− and + indicate the result is below and above the no significant effect threshold, respectively (<30% inhibition at a concentration of 1 μg/ml)) | 8.1 | 36 | – | 4 |
